# Measured values taken from patent US20240050463A1, “THERAPEUTIC COMPOSITIONS AND METHODS FOR TREATING HEPATITIS B” (ARBUTUS BIOPHARMA CORPORATION, priority 2016, published 2024).
# Legend:
# hepatitis B virus (HBV) [1] = test: Serum HBsAg in AAV1.2 mouse model of HBV, enzyme immunoassay; type: in vivo, C57/Bl6 mice; conditions: D0 (pre-treatment); Compound 20 3.0 mg/kg oral twice daily Days 0-28; HBV siRNA 0.3 mg/kg IV Day 0
# Experimental: (§1) This viral vector contains a 1.2-fold overlength copy of the HBV genome and expresses HBV surface antigen (HBsAg) amongst other HBV products. Serum HBsAg expression in mice was monitored using an enzyme immunoassay. Animals were sorted (randomized) into groups based on serum HBsAg levels such that a) all animals were confirmed to express HBsAg and b) HBsAg group means were similar to each other prior to initiation of treatments.
# Animals were treated with Compound 20 as follows: Starting on Day 0, a 3.0 mg/kg dosage of Compound 20 was administered orally to animals on a twice-daily frequency for a total of 56 doses between Days 0 and 28. Compound 20 was dissolved in a co-solvent formation for administration. Negative control animals were administered either the co-solvent formulation alone, or were not treated with any test article. Animals were treated with lipid nanoparticle (LNP)-encapsulated HBV-targeting siRNAs as follows: On Day 0, an amount of test article equivalent to 0.3 mg/kg siRNA was administered intravenously. The HBsAg expression levels for each treatment were compared against the Day 0 (pre-dose) values for that group.
# The effect of these treatments was determined by collecting blood on Days 0 (pre-treatment), 7, 14, and 28 and analyzing it for serum HBsAg content.
# [2] = system: D type HBV in primary human hepatocytes (PHH); test: HBV DNA in culture supernatants of HBV-infected primary human hepatocytes (qPCR), MacSynergy; type: cell-based; conditions: for AVERAGE % INHIBITION, HBV DNA: COMPOUND 3 0.00 nM; for AVERAGE % INHIBITION: HBV DNA, COMPOUND 22 0.00 nM
# Experimental: (§2) The mouse liver perfusion was applied to isolate PHHs. The isolated hepatocytes were further purified by Percoll. The cells were resuspended with culture media and seeded into the 96-well plates (6×10^4 cell/well) or 48-well plates (1.2×10^5 cell/well). The PHHs were infected with a D type HBV one day post seeding (day 1).
# (§3) On day 2, the test compounds were diluted and added into the cell culture plates. The culture media containing the compounds were refreshed every other day. The cell culture supernatants were collected on day 8 for the HBV DNA and antigen determinations.
# (§4) The compounds were tested at 7 concentrations, 3-fold dilution, in triplicate.
# (§5) Two compounds were tested at 5×5 matrix, in triplicate plates.
# DNA in the culture supernatants harvested on days 8 were isolated with QIAamp 96 DNA Blood Kit (Qiagen-51161). For each sample, 100 μl of the culture supernatants was used to extract DNA. The DNA was eluted with 100 μl, 150 μl or 180 μl of AE. HBV DNA in the culture supernatants was quantified by qPCR. The combination effect was analyzed by the MacSynergy software. The primers are described below.
# [3] = system: HBsAg, D type HBV in primary human hepatocytes (PHH); test: microbe, parasite or virus in culture; type: cell-based; conditions: for AVERAGE % INHIBITION, HBsAg: COMPOUND 3 0.00 nM; for AVERAGE % INHIBITION: HBsAg, COMPOUND 22 0.00 nM
# Experimental: as §2, §3, §4, §5
# (§6) HBsAg/HBeAg in the culture supernatants harvested on days 8 were measured by the HBsAg/HBeAg ELISA kit (Autobio) according to the manual. The samples were diluted with PBS to get the signal in the range of the standard curve. The inhibition rates were calculated with the formula below. The combination effect was analyzed by the MacSynergy software.
# % Inh. HBsAg=[1−HBsAg quantity of sample/HBV quantity of DMSO control]×100.
# [4] = system: HBeAg, D type HBV in primary human hepatocytes (PHH); test: microbe, parasite or virus in culture; type: cell-based
# Experimental: as §2, §3, §4, §5, §6
# % Inh. HBeAg=[1−HBeAg quantity of sample/HBV quantity of DMSO control]×100.
# [5] = system: HBV rcDNA in HepDE19 cells; test: Inhibition of rcDNA in HepDE19 cells (bDNA assay), checkerboard, MacSynergy II; type: cell-based, HBV (human hepatoma cell line); conditions: Hepatitis B virus, HepDE19, read-out: ADDITIVE INHIBITION
# Experimental: In vitro combination studies were conducted using the method of Prichard and Shipman (Prichard M N, and Shipman C Jr., Antiviral Research, 1990, 14(4-5), 181-205; and Prichard M N, et. al., MacSynergy II). HepDE19 cell culture system is a HepG2 (human hepatocarcinoma) derived cell line that supports HBV DNA replication and cccDNA formation in a tetracycline (Tet)-regulated manner and produces HBV rcDNA and a detectable reporter molecule dependent on the production and maintenance of cccDNA (Guo et al 2007. J. Virol 81:12472-12484). HepDE19 (50,000 cells/well) were plated in 96 well collagen-coated tissue-culture treated microtiter plates in DMEM/F12 medium supplemented with 10% fetal bovine serum, 1% penicillin-streptomycin and 1 μg/ml tetracycline and incubated in a humidified incubator at 37° C. and 5% CO2 overnight. Next day, the cells were switched to fresh medium without tetracycline and incubated for 4 hrs at 37° C. and 5% CO2. […] The two inhibitors were tested both singly as well as in combinations in a checkerboard fashion such that each concentration of inhibitor A was combined with each concentration of inhibitor B to determine their combination effects on inhibition of rcDNA production. Following a 7 day-incubation of cells with compound combinations, the level of rcDNA present in the inhibitor-treated wells was measured using a Quantigene 2.0 bDNA assay kit (Affymetrix, Santa Clara, CA) with HBV specific custom probe set and manufacturers instructions. […] The RLU data from the single compound treated cells were analyzed using XL-Fit module in Microsoft Excel to determine EC50 values using a 4-parameter curve fitting algorithm. Concurrently, the effect of compounds on cell viability was assessed using replicate plates, plated at a density of 5,000 cells/well and incubated for 4 days, to determine the ATP content as a measure of cell viability using the cell-titer glo reagent (CTG; Promega Corporation, Madison, WI) as per manufacturer's instructions.
# In vitro combination studies were conducted using the method of Prichard and Shipman (Prichard M N, Shipman C, Jr., Antiviral Res, 14, 181-205 (1990)). The HepDE19 cell line was developed as described in Guo et al. (Guo et al., J Virol, 81, 12472-12484 (2007)). It is a human hepatoma cell line stably transfected with the HBV genome, and which can express HBV pregenomic RNA and support HBV rcDNA (relaxed circular DNA) synthesis in a tetracycline-regulated manner. HepDE19 cells were plated in 96 well tissue-culture treated microtiter plates in DMEM/F12 medium supplemented with 10% fetal bovine serum+1% penicillin-streptomycin without tetracycline and incubated in a humidified incubator at 37° C. and 5% CO2 overnight. […] The two inhibitors were tested both singly as well as in combinations in a checkerboard fashion such that each concentration of inhibitor A was combined with each concentration of inhibitor B to determine their combination effects on inhibition of rcDNA production. Following a 48 hour-incubation, the level of rcDNA present in the inhibitor-treated wells was measured using a bDNA assay (Affymetrix) with HBV specific custom probe set and manufacturers instructions. […] Concurrently, the effect of inhibitor combinations on cell viability was assessed using replicate plates that were used to determine the ATP content as a measure of cell viability using the Cell-TiterGlo reagent (Promega) as per manufacturer's instructions.
# In vitro combination studies were conducted using the method of Prichard and Shipman (1990) (Prichard M N, Shipman C, Jr. 1990. A three-dimensional model to analyze drug-drug interactions. Antiviral Res 14:181-205 AND Prichard M N. 1992. MacSynergy II, University of Michigan).
# hepatitis B virus (HBV) [6] = test: Serum HBsAg in mouse model of HBV (pAAV/HBV1.2 hydrodynamic injection), enzyme immunoassay; type: in vivo, C3H/HeN mice; conditions: HBV siRNA 1 mg/kg IV Days 0, 7, 14, poly(I:C) 20 μg HDI Day 0, mean ± SEM
# Text: A mouse model of hepatitis B virus (HBV) was used to assess the anti-HBV effects of an immune stimulant and HBV-targeting siRNAs, both as independent treatments and in combination with each other.
# as §1, with “This plasmid carries” for “This viral vector contains”, “of a” for “of the”
# Animals were treated with immune stimulant as follows: On Day 0, 20 micrograms of high molecular weight polyinosinic:poly cytidylic acid (poly(I:C)) was administered via HDI. Animals were treated with lipid nanoparticle (LNP)-encapsulated HBV-targeting siRNAs as follows: On each of Days 0, 7 & 14, an amount of test article equivalent to 1 mg/kg siRNA was administered intravenously. A negative control group was included as the HBsAg expression level is not completely stable in this mouse model of HBV; the absolute concentration of serum HBsAg generally declines over time in individual animals.
# The effect of the treatments was determined by collecting a small amount of blood on Days 0 (pre-treatment), 3, 7, 14 & 21 and analyzing it for serum HBsAg content. Samples were diluted as appropriate to generate values within the assay range of quantitation where possible. Individual values falling below the lower limit of quantitation (LLOQ) were set as one-half the LLOQ.
# [7] = Hepatitis B virus, Hepatocyte, read-out: AVERAGE % INHIBITION (HBV DNA)
# [8] = Hepatitis B virus, Hepatocyte, read-out: AVERAGE % INHIBITION (HBsAg)
# [9] = Hepatitis B virus, Hepatocyte, read-out: AVERAGE % INHIBITION (HBeAg)
compound,measurement,setting,value
COCCCOc1cc2c(cc1OC)-c1cc(=O)c(C(=O)O)cn1[C@H](C(C)C)C2 [Compound 20],"Serum HBsAg, percentage of individual animal pre-treatment baseline value at Day 0 (mean ± SEM)",hepatitis B virus (HBV) [1],100 ± 0%
COCCCOc1cc2c(cc1OC)-c1cc(=O)c(C(=O)O)cn1C(C(C)C)C2 (stereo not drawn) [Compound 25],"AVERAGE % INHIBITION, HBV DNA",[2]; COMPOUND 25 0.12 nM,−20.98%
same,"AVERAGE % INHIBITION, HBV DNA",[2]; COMPOUND 25 0.37 nM,−51.8%
same,"AVERAGE % INHIBITION, HBV DNA",[2]; COMPOUND 25 3.33 nM,15.24%
same,"AVERAGE % INHIBITION, HBV DNA",[2]; COMPOUND 25 10.00 nM,28%
same,"AVERAGE % INHIBITION, HBV DNA",[2]; COMPOUND 25 […],5.69%
same,AVERAGE % INHIBITION,[2]; COMPOUND 25 0.12 nM,−42.82%
same,AVERAGE % INHIBITION,[2]; COMPOUND 25 0.37 nM,−46.48%
same,AVERAGE % INHIBITION,[2]; COMPOUND 25 3.33 nM,16.41%
same,AVERAGE % INHIBITION,[2]; COMPOUND 25 10.00 nM,37.39%
same,AVERAGE % INHIBITION,[2]; COMPOUND 25 […],−19.21%
same,"AVERAGE % INHIBITION, HBsAg",[3]; COMPOUND 25 0.37 nM,−5.09%
same,"AVERAGE % INHIBITION, HBsAg",[3]; COMPOUND 25 […],−3.18%
same,AVERAGE % INHIBITION,[3]; COMPOUND 25 0.37 nM,12.93%
same,AVERAGE % INHIBITION,[3]; COMPOUND 25 […],26.4%
same,"AVERAGE % INHIBITION, HBeAg","[4]; COMPOUND 25 […], COMPOUND 3 0.00 nM",4.51%
same,AVERAGE % INHIBITION,"[4]; HBeAg, COMPOUND 25 […], COMPOUND 22 0.00 nM",14.98%
"CC(C)OC(=O)[C@H](C)N[P@](=O)(CO[C@H](C)Cn1cnc2c(N)ncnc21)Oc1ccccc1 [TAF, tenofovir alafenamide]",inhibition at 0.00012 µM,[2]; [7],-2.6%
same,inhibition at 0.00037 µM,[2]; [7],-1.92%
same,inhibition at 0.00333 µM,[2]; [7],40.2%
same,inhibition at 0.01 µM,[2]; [7],50.2%
same,"AVERAGE % INHIBITION, HBV DNA",[2]; TAF 0.05 nM,−8.77%
same,"AVERAGE % INHIBITION, HBV DNA",[2]; TAF 0.41 nM,28.78%
same,"AVERAGE % INHIBITION, HBV DNA",[2]; TAF 1.23 nM,63.39%
same,"AVERAGE % INHIBITION, HBV DNA",[2]; TAF 3.70 nM,78.31%
same,inhibition at 0.000123457 µM,[3]; [8],29.8%
same,inhibition at 0.00037037 µM,[3]; [8],10.8%
same,inhibition at 0.00111111 µM,[3]; [8],20.8%
same,inhibition at 0.00333333 µM,[3]; [8],9.06%
same,inhibition at 0.01 µM,[3]; [8],7.97%
same,inhibition at 50 pM,[4]; [9],1.17%
same,inhibition at 0.00014 µM,[4]; [9],-2.78%
same,inhibition at 0.00041 µM,[4]; [9],1.76%
same,inhibition at 0.00123 µM,[4]; [9],9.91%
same,inhibition at 0.0037 µM,[4]; [9],11.9%
same,inhibition at 0.0007813 µM,[5],-4.76%
same,inhibition at 0.0015625 µM,[5],3.49%
polyinosinic:poly cytidylic acid [Poly(I:C)],Serum HBsAg as percentage of individual pre-treatment baseline,hepatitis B virus (HBV) [6]; Day 0 (pre-treatment),100 ± 0%
same,Serum HBsAg as percentage of individual pre-treatment baseline,hepatitis B virus (HBV) [6]; Day 3,6.1 ± 1.1%
same,Serum HBsAg as percentage of individual pre-treatment baseline,hepatitis B virus (HBV) [6]; Day 7,3.5 ± 1.1%
same,Serum HBsAg as percentage of individual pre-treatment baseline,hepatitis B virus (HBV) [6]; Day 14,3.9 ± 1.4%
same,Serum HBsAg as percentage of individual pre-treatment baseline,hepatitis B virus (HBV) [6]; Day 21,4.7 ± 2.3%
